Measurements reported in publication PMC2365111, “Cytotoxicity of Poly(Phenolic)Sulfonates and Their Sodium Salts in L1210 Lymphoid Leukemia Cells” (Metal-Based Drugs, 1998).

Assays:
[1] = test system: L1210 de novo pyrimidine synthesis; assay: 14C-formate incorporation into pyrimidines; type: cell-based, mouse; conditions: 60 min, N=6
Description: (§1) CYTOTOXlCITY OF POLY(PHENOLIC)SULFONATES AND THEIR SODIUM SALTS IN L1210 LYMPHOID LEUKEMIA CELLS Fei Wang, Amy E. Warren, Cheryl R. Barnes and Iris H. Hall* Division of Medicinal Chemistry and Natural Products University of North Carolina Chapel Hill, N.C. […] Because ofthese properties it was surmised that these poly(phenolic)sulfonated compounds may have antineoplastic activity. METHODS Source of Compounds Test compounds were supplied by GeneLabs, Inc. [Redwood City, CA [Table 1]. Radioisotopes were obtained from New England Nuclear [Dupont, Boston, MA]. Substrates and co-factors were purchased om Sigma Chemical Co., [St Louis, MO]. Pentosan sulfate and other antineoplastic standards were obtained from Sigma Chemical Co. Tumor lines were obtained from American Type Culture Collection [Rockville, MD]. 147 Vol. 5, No. 3, 1998 Cytotoxicity ofSodium Poly(Phenolic)Sulfonates in L1210 Lymphoid Leukemia Cells Table 1 Structures of Poly(phenolic)sulfonate Compounds O2R" n Compound R' R" n MW # G1-2041 H OH 8 1489.46 G1-2029 H OH 6 1117.09 G1-2030 H OH 4 744.73 GI-2021 CH3 ONa 8 1777.5 G1-2057 CH3 ONa 4 888.75 GI-2158 CH3 ONa 6 1333.13 GI-2063 OCH3 ONa 8 2001.65 G1-2042 OAc ONa 8 2017.73 Cytotoxicity Poly(phenolic)sulfonates were tested for cytotoxic activity by homogenizing drug in 0.05% Tween 80/H20 to give a mg/ml stock concentration. These solutions were sterilized by passing them through an acrodisc ([…]). The following cell lines were maintained by literature techniques: murine L1210 lymphoid leukemia, P-388 lymphocytic leukemia, rat UMR 106 osteosarcoma, human Tmolt3 acute lymphoblastic T cell leukemia, HUT-8 lymphoma, HeLa-S suspended cervical carcinoma, HeLa solid cervical carcinoma, KB epidermoid nasopharynx, A431 epidermoid carcinoma, colorectal adenocarcinoma SW480, HCT-8 ileocecal adenocarcinoma, lung bronchogenic MB-9812, A549 lung carcinoma, and glioma HS683. Geran et al.'s protocol was used to assess the cytotoxicity of the compounds and standards in each cell line. Cell numbers were determined by the trypan blue exclusion technique. Solid tumor cytotoxicity was determined by Leibovitz et al. 's method utilizing crystal violeeOH and read at 562 nm (Molecular Devices). Values for cytotoxicity were expressed as EDs0 g/ml, i.e. the concentration ofthe compound inhibiting 50% ofcell growth. A value of less than 4 µg/ml was required for significant activity ofgrowth inhibition. Incorporation Studies Incorporation of labeled precursors into 3H-DNA, 3H -RNA and 3H -protein for 10 L1210 cells was obtained. The concentration response for inhibition of DNA, RNA and protein synthesis of the compounds at 25, 50 and 100 l.tM was determined for 60 min incubations. Incorporation of 14C -glycine (53.0 mCi/mmol) into purines was obtained by the method of Cadman et al.[12]. Incorporation of 4C- formate (53.0 mCi/mmol) into pyrimidines was determined by the method of Christopherson et al.[13]. Enzyme Assays Inhibition of various enzyme activities was performed by first preparing the appropriate L1210 cell homogenates or subcellular fractions, then adding the drug to be tested during the enzyme assay. For the concentration response studies, inhibition of enzyme activity was determined at 25, 50 and 100 l.tM of compounds G1-2021, G1-2029, GI-2041 and G1-2063 after 60 min incubations. DNA polymerase Ot activity was determined in cytoplasmic extracts isolated by Eichler et aL's method. The DNA polymerase assay was described by Sedwick et al.[15] using 3H-TTP. Messenger-, ribosomal- and transfer-RNA polymerase enzymes were isolated with different concentrations of ammonium sulfate; individual RNA polymerase activities were determined using 3H -UTP 16,17]. Ribonucleoside reductase activity was measured using 4C -CDP with dithioerythritol. The deoxyribonucleotides 4C -dCDP were separated from the ribonucleotides by TLC on PEI plates. […]

DNA polymerase α = molecular target: T1, DNA polymerase α (Mus musculus, UniProt P33609); assay: DNA polymerase alpha activity, L1210 cytoplasmic extracts; type: biochemical; conditions: for DNA polymerase α: 60 min, N=6; for DNA polymerase activity time course, in words: 50 μM over 2 hr
T1 construct: endogenous in cells; host or cells: L1210 murine lymphoid leukemia cells, cytoplasmic extract
T1 sequence (P33609 whole entry): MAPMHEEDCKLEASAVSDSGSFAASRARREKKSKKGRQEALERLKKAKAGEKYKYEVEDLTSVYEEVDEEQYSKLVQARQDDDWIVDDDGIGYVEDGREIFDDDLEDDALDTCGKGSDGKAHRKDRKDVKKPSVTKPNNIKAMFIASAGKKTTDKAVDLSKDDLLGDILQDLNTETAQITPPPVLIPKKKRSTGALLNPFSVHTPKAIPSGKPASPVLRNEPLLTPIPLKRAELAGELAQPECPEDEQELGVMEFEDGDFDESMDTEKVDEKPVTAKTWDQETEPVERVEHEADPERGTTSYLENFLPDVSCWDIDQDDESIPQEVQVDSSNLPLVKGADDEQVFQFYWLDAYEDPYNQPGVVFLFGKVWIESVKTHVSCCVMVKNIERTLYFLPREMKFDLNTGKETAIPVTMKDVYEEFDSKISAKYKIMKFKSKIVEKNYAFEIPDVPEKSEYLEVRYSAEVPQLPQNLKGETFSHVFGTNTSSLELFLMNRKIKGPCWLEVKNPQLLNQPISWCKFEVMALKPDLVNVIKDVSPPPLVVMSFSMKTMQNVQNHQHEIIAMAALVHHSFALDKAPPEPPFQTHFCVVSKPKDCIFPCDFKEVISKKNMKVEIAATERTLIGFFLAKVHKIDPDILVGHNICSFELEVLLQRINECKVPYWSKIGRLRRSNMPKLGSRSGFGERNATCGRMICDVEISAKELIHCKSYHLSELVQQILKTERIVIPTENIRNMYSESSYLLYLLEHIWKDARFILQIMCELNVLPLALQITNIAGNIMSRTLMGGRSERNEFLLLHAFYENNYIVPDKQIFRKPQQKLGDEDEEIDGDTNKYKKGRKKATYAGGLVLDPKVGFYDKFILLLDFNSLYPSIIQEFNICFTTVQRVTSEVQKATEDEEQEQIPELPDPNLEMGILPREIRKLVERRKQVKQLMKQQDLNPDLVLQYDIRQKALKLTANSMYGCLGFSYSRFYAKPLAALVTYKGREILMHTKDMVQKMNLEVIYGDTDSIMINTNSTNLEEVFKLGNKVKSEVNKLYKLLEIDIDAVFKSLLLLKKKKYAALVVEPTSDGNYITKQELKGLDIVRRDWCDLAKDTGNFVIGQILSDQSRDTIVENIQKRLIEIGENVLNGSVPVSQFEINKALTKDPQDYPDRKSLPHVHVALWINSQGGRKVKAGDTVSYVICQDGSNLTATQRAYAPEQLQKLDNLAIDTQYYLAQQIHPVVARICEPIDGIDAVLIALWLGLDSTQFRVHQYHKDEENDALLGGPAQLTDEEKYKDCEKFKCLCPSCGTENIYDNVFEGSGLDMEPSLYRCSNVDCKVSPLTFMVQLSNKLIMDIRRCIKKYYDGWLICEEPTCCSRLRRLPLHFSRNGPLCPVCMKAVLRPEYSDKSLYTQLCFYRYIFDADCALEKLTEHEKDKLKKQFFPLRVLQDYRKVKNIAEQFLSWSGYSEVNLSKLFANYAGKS
T1 sequence (P33611 whole entry partner): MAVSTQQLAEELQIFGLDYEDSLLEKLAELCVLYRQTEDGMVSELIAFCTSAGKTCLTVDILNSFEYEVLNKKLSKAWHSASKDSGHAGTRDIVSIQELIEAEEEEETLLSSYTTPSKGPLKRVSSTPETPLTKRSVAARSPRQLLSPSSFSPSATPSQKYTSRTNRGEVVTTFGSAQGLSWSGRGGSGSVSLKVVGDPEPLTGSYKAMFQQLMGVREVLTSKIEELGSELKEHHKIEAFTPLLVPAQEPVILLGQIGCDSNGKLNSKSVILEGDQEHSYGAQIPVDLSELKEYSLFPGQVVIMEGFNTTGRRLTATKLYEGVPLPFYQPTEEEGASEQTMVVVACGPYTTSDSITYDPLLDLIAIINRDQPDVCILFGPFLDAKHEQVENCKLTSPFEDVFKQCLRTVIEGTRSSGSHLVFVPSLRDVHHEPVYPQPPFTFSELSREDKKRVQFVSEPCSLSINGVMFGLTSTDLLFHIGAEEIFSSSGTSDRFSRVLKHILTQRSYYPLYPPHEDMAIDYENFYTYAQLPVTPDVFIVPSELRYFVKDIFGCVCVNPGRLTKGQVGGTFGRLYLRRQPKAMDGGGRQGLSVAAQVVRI
T1 sequence (P20664 whole entry partner): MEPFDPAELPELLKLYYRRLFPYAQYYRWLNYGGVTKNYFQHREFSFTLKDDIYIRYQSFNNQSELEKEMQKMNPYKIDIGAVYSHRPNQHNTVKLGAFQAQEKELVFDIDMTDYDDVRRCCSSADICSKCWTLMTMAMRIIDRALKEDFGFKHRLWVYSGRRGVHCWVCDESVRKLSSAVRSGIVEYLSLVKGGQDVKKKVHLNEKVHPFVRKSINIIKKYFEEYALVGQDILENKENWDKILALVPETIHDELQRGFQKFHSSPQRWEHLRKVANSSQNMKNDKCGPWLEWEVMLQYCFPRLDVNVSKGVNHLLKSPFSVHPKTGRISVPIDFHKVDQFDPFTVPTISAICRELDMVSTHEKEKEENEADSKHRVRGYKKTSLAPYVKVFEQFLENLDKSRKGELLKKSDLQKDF
T1 sequence (P33610 whole entry partner): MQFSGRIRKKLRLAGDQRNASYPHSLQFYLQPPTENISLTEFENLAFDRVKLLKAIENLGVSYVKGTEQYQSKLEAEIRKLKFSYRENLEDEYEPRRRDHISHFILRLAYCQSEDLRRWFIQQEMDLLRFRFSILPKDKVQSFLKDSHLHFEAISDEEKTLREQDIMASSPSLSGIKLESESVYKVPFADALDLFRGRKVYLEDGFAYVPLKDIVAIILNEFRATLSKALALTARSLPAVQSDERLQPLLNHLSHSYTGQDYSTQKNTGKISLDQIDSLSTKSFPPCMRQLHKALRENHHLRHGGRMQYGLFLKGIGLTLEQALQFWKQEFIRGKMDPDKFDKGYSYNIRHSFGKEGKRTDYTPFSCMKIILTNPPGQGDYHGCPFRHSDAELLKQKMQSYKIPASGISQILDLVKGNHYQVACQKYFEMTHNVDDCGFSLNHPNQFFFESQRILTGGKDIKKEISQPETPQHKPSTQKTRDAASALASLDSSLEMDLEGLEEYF
Description: as §1

mRNA polymerase = molecular target: T2, mRNA polymerase (Mus musculus, UniProt P08775); assay: Messenger-RNA polymerase activity, L1210; type: biochemical; conditions: 60 min, N=6
T2 construct: Messenger-, ribosomal- and transfer-RNA polymerase enzymes were isolated with different concentrations of ammonium sulfate; endogenous in cells; host or cells: L1210 murine lymphoid leukemia cells, ammonium sulfate fraction
Description: CYTOTOXlCITY OF POLY(PHENOLIC)SULFONATES AND THEIR SODIUM SALTS IN L1210 LYMPHOID LEUKEMIA CELLS Fei Wang, Amy E. Warren, Cheryl R. Barnes and Iris H. Hall* Division of Medicinal Chemistry and Natural Products University of North Carolina Chapel Hill, N.C. […] Because ofthese properties it was surmised that these poly(phenolic)sulfonated compounds may have antineoplastic activity. METHODS Source of Compounds Test compounds were supplied by GeneLabs, Inc. [Redwood City, CA [Table 1]. Radioisotopes were obtained from New England Nuclear [Dupont, Boston, MA]. Substrates and co-factors were purchased om Sigma Chemical Co., [St Louis, MO]. Pentosan sulfate and other antineoplastic standards were obtained from Sigma Chemical Co. Tumor lines were obtained from American Type Culture Collection [Rockville, MD]. […] Cell numbers were determined by the trypan blue exclusion technique. Solid tumor cytotoxicity was determined by Leibovitz et al. 's method utilizing crystal violeeOH and read at 562 nm (Molecular Devices). Values for cytotoxicity were expressed as EDs0 g/ml, i.e. the concentration ofthe compound inhibiting 50% ofcell growth. […] Incorporation of 4C- formate (53.0 mCi/mmol) into pyrimidines was determined by the method of Christopherson et al.[13]. […] DNA polymerase Ot activity was determined in cytoplasmic extracts isolated by Eichler et aL's method. […] Messenger-, ribosomal- and transfer-RNA polymerase enzymes were isolated with different concentrations of ammonium sulfate; individual RNA polymerase activities were determined using 3H -UTP 16,17]. Ribonucleoside reductase activity was measured using 4C -CDP with dithioerythritol. […]

Thymidine kinase = Thymidine kinase activity, L1210; type: biochemical, mouse; conditions: 60 min, N=6
Description: as §1

tRNA polymerase = assay: Transfer-RNA polymerase activity, L1210; type: biochemical, mouse; conditions: 60 min, N=6
Description: as §1

L1210 d[NTP] pool levels = assay: Deoxyribonucleoside triphosphate pool levels; type: cell-based, mouse; conditions: 100 μM, 60 min, N=6
Description: as §1

L1210 protein synthesis = assay: Incorporation of labeled precursor into protein; type: cell-based, mouse; conditions: 60 min, N=6
Description: as §1

IMP dehydrogenase = IMP dehydrogenase activity, L1210; type: biochemical, mouse; conditions: 60 min, N=6
Description: as §1, with “Enzyme Assays Inhibition of various enzyme activities was performed by first preparing the appropriate L1210 cell homogenates or subcellular fractions, then adding the drug to be tested during the enzyme assay. For the concentration response studies, inhibition of enzyme activity was determined at 25, 50 and 100 l.tM of compounds G1-2021, G1-2029, GI-2041 and G1-2063 after 60 min incubations.” left out, “The DNA polymerase assay was described by Sedwick et al.[15] using 3H-TTP.” left out, “dithioerythritol.” for “dithioerythritol. The deoxyribonucleotides 4C -dCDP were separated from the ribonucleotides by TLC on PEI plates.”

PRPP amido transferase = molecular target: T3, PRPP amido transferase (Mus musculus, UniProt Q8CIH9); assay: PRPP amidotransferase activity, L1210; type: biochemical; conditions: 60 min, N=6
T3 construct: preparing the appropriate L1210 cell homogenates or subcellular fractions; endogenous in cells; host or cells: L1210 murine lymphoid leukemia cells, homogenate or subcellular fraction
T3 sequence (Q8CIH9 12-517): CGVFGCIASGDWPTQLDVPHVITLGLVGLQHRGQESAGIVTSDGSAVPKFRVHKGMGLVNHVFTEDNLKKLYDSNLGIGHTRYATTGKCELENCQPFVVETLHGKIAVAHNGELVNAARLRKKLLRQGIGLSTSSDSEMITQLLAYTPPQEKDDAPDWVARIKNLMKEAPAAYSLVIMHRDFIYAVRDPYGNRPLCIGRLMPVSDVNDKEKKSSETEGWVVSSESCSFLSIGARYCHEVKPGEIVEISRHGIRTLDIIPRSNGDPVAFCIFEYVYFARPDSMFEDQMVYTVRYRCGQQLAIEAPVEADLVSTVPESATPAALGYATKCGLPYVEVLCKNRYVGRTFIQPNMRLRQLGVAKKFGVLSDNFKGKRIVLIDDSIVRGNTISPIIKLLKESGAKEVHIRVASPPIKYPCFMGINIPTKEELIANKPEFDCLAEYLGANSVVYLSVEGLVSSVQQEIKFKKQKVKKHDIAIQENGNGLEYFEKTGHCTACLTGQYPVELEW
Description: as §1, with “Enzyme Assays Inhibition of various enzyme activities was performed by first preparing the appropriate L1210 cell homogenates or subcellular fractions, then adding the drug to be tested during the enzyme assay. For the concentration response studies, inhibition of enzyme activity was determined at 25, 50 and 100 l.tM of compounds G1-2021, G1-2029, GI-2041 and G1-2063 after 60 min incubations.” left out, “The DNA polymerase assay was described by Sedwick et al.[15] using 3H-TTP.” left out, “dithioerythritol.” for “dithioerythritol. The deoxyribonucleotides 4C -dCDP were separated from the ribonucleotides by TLC on PEI plates.”

L1210 DNA synthesis = assay: Incorporation of labeled precursor into DNA; type: cell-based, mouse; conditions: 60 min, N=6
Description: as §1

Dihydrofolate reductase = molecular target: T4, Dihydrofolate reductase (Mus musculus, UniProt P00375); assay: Dihydrofolate reductase activity, L1210; type: biochemical; conditions: for Dihydrofolate reductase: 60 min, N=6
T4 construct: preparing the appropriate L1210 cell homogenates or subcellular fractions; endogenous in cells; host or cells: L1210 murine lymphoid leukemia cells, homogenate or subcellular fraction
T4 sequence (P00375 1-187): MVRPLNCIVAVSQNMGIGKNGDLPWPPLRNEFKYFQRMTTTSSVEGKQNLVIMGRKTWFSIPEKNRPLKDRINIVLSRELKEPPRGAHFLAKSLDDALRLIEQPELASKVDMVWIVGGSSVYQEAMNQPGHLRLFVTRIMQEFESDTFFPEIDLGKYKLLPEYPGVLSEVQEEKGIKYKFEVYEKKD
Description: as §1

SMILES | Pyrimidine de novo synthesis ([1]; 25 μM) | Pyrimidine de novo synthesis ([1]; 100 μM) | DNA polymerase α (DNA polymerase α; 25 μM) | DNA polymerase activity time course, in words (DNA polymerase α) | DNA polymerase α (DNA polymerase α; 100 μM) | Thymidine kinase (Thymidine kinase; 25 μM) | Thymidine kinase (Thymidine kinase; 50 μM) | tRNA polymerase (tRNA polymerase; 25 μM) | tRNA polymerase (tRNA polymerase; 50 μM) | d(ATP) (L1210 d[NTP] pool levels) | d(CTP) (L1210 d[NTP] pool levels) | d(GTP) (L1210 d[NTP] pool levels) | d(TTP) (L1210 d[NTP] pool levels) | Protein synthesis (L1210 protein synthesis; 50 μM) | Protein synthesis (L1210 protein synthesis; 100 μM) | IMP dehydrogenase (IMP dehydrogenase; 25 μM) | PRPP amido transferase (PRPP amido transferase; 50 μM) | DNA synthesis (L1210 DNA synthesis; 25 μM) | DNA synthesis (L1210 DNA synthesis; 50 μM) | Dihydrofolate reductase (Dihydrofolate reductase; 100 μM) | further results
COc1c2cc(S(=O)(=O)[O-])cc1Cc1cc(S(=O)(=O)[O-])cc(c1OC)Cc1cc(S(=O)(=O)[O-])cc(c1OC)Cc1cc(S(=O)(=O)[O-])cc(c1OC)Cc1cc(S(=O)(=O)[O-])cc(c1OC)Cc1cc(S(=O)(=O)[O-])cc(c1OC)Cc1cc(S(=O)(=O)[O-])cc(c1OC)Cc1cc(S(=O)(=O)[O-])cc(c1OC)C2.[Na+].[Na+].[Na+].[Na+].[Na+].[Na+].[Na+].[Na+] [GI-2021] | 98+6% of Control | 88+5% of Control | 76+5% of Control | activity remained suppressed at 60 and 90 min | 52+4% of Control | 112+7% of Control | 96+5% of Control | 98+5% of Control | 85+5% of Control | 65+ 4% of Control | 67+5% of Control | 79+4% of Control | 88+6% of Control | 64+4% of Control | 59+3% of Control | 124+4% of Control | 61+4% of Control | 105+6% of Control | 77+5% of Control | 76+4% of Control | mRNA polymerase (mRNA polymerase; 25 μM): 99+5% of Control; Thymidine kinase (Thymidine kinase; 100 μM): 76+4% of Control; tRNA polymerase (tRNA polymerase; 100 μM): 76+4% of Control; Protein synthesis (L1210 protein synthesis; 25 μM): 80+4% of Control; PRPP amido transferase (PRPP amido transferase; 25 μM): 62+5% of Control; DNA synthesis (L1210 DNA synthesis; 100 μM): 39+5% of Control; dihydrofolate reductase activity reduced (Dihydrofolate reductase; 100 μM after hr): 24%
O=S(=O)(O)c1cc2c(O)c(c1)Cc1cc(S(=O)(=O)O)cc(c1O)Cc1cc(S(=O)(=O)O)cc(c1O)Cc1cc(S(=O)(=O)O)cc(c1O)Cc1cc(S(=O)(=O)O)cc(c1O)Cc1cc(S(=O)(=O)O)cc(c1O)C2 [GI-2029] | 99+6% of Control | 93+7% of Control | 70+3% of Control | activity remained suppressed at 60 and 90 min | 44+3% of Control | 105+6% of Control | 104+6% of Control | 103+5% of Control | 98+5% of Control | 68+5% of Control | 96+ 5% of Control | – | 98+5% of Control | 80+3% of Control | 71+3% of Control | 270+5% of Control | 30+3% of Control | – | 78+3% of Control | 127+6% of Control | Pyrimidine de novo synthesis ([1]; 50 μM): 96+ 5% of Control; DNA polymerase α (DNA polymerase α; 50 μM): 60+3% of Control; mRNA polymerase (mRNA polymerase; 100 μM): 50+3% of Control; IMP dehydrogenase (IMP dehydrogenase; 50 μM): 184+6% of Control; Dihydrofolate reductase (Dihydrofolate reductase; 50 μM): 108+5% of Control
O=S(=O)(O)c1cc2c(O)c(c1)Cc1cc(S(=O)(=O)O)cc(c1O)Cc1cc(S(=O)(=O)O)cc(c1O)Cc1cc(S(=O)(=O)O)cc(c1O)Cc1cc(S(=O)(=O)O)cc(c1O)Cc1cc(S(=O)(=O)O)cc(c1O)Cc1cc(S(=O)(=O)O)cc(c1O)Cc1cc(S(=O)(=O)O)cc(c1O)C2 [GI-2041] | 112+6% of Control | – | 85+5% of Control | returned to normal at 90 min | – | 116+5% of Control | 104+5% of Control | 108+6% of Control | – | 62+ 5% of Control | – | 74+5% of Control | 89+6% of Control | 70+3% of Control | 70+3% of Control | 131+6% of Control | 38+3% of Control | 98+6% of Control | 84+5% of Control | 92+5% of Control | Pyrimidine de novo synthesis ([1]; 50 μM): 97+5% of Control; mRNA polymerase (mRNA polymerase; 100 μM): 47+3% of Control; IMP dehydrogenase (IMP dehydrogenase; 100 μM): 70+4% of Control; PRPP amido transferase (PRPP amido transferase; 100 μM): 10+2% of Control; DNA synthesis (L1210 DNA synthesis; 100 μM): 33+5% of Control; Dihydrofolate reductase (Dihydrofolate reductase; 25 μM): 105+5% of Control
